Measurements from article PMC5518309 (ChemMedChem, 2014).
Numbered stars: 1 amine (or outer) side, 2 acyl side, 3 side chain; on linkers, the order of the positions; unused ones are H or OH. Side chains are listed from the residue outwards. Peptide text beside a SMILES is read from it. * marks the point of attachment. X1 = CN(C)c1ccc2c(c1)Oc1cc(N(C)C)ccc1C21OC(=O)c2ccc(C(=O)*)cc21; γGlu = O=C(O)[C@H](CCC(=O)[*:2])N[*:1]; Palmitoyl = CCCCCCCCCCCCCCCC(=O)*; Octanoyl = CCCCCCCC(=O)*

Columns and labels:
[1] = Stability test in human blood plasma; assay type: in vitro ADME; settings: for half-life at 10 μM: human
[2] = Metabolic stability in porcine liver homogenates; assay type: in vitro ADME; settings: pig, porcine liver homogenate (supernatant)
hY5R = target: T1, hY5R (Homo sapiens, UniProt Q15761); experiment: Inositol phosphate accumulation assay, hY5R; assay type: cell-based
T1 sequence (Q15761 1-445): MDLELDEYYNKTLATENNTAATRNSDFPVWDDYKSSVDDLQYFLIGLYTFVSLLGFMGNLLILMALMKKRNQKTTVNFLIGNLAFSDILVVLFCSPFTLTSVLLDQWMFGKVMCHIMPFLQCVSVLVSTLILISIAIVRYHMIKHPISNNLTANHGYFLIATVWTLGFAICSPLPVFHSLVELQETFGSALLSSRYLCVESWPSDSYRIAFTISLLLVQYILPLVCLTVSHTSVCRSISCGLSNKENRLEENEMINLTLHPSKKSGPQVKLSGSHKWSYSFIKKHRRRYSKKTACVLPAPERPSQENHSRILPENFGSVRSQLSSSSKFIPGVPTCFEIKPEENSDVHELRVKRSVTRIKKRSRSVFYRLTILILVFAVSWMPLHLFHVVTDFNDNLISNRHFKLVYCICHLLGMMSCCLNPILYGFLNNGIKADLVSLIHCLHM

hY4R = hY4R (Homo sapiens, UniProt P50391); experiment: Inositol phosphate accumulation assay, hY4R; assay type: cell-based
hY4R, sequence (P50391 whole entry): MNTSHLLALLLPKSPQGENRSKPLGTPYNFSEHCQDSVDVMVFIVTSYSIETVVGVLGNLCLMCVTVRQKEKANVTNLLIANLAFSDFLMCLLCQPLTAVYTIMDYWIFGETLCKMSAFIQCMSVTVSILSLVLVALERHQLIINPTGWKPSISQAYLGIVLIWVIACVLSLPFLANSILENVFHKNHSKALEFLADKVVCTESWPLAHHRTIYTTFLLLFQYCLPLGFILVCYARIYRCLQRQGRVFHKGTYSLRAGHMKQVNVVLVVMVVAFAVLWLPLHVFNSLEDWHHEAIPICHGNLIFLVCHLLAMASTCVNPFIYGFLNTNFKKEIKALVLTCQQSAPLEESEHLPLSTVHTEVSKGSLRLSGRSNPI

hY1R = target: T2, hY1R (Homo sapiens, UniProt P25929); experiment: Inositol phosphate accumulation assay, hY1R; assay type: cell-based
T2 sequence (P25929 1-384): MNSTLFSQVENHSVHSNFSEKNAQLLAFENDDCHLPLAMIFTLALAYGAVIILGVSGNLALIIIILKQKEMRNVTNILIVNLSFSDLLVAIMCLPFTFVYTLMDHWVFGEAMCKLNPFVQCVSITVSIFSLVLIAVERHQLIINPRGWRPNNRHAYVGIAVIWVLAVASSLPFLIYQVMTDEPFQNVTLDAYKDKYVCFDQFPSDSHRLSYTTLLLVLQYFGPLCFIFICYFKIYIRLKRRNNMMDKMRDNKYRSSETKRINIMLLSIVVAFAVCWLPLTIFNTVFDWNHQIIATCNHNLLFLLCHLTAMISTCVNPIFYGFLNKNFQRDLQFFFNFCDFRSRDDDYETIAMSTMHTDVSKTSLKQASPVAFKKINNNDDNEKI

hY2R = target: T3, hY2R (Homo sapiens, UniProt P49146); experiment: Inositol phosphate accumulation assay, hY2R; assay type: cell-based
T3 sequence (P49146 1-381): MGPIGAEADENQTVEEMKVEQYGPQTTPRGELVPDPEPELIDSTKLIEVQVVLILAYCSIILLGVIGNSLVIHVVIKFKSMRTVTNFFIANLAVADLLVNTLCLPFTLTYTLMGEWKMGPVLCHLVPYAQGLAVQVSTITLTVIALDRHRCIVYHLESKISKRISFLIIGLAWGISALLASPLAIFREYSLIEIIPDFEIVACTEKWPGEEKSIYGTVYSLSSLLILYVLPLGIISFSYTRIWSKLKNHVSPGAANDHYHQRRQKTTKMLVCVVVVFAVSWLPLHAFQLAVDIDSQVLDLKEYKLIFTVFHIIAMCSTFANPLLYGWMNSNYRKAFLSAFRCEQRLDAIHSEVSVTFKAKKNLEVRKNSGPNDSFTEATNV

`CC[C@H](C)[C@H](NC(=O)[C@H](Cc1ccc(O)cc1)NC(=O)[C@H](CCCNC(=N)N)NC(=O)[C@H](CCCNC(=N)N)NC(=O)[C@H](CC(C)C)NC(=O)[C@H](CC(=O)O)NC(=O)[C@H](C)NC(=O)[C@H](C)NC(=O)[C@H](Cc1ccc(O)cc1)NC(=O)[C@H](CCC(N)=O)NC(=O)[C@H](C)NC(=O)[C@H](CCSC)NC(=O)[C@H](CCC(N)=O)NC(=O)[C@H](CCC(=O)O)NC(=O)[C@@H]1CCCN1C(=O)[C@@H](NC(=O)[C@H](C)NC(=O)[C@H](CC(N)=O)NC(=O)[C@H](CC(=O)O)NC(=O)CNC(=O)[C@@H]1CCCN1C(=O)[C@H](Cc1ccc(O)cc1)NC(=O)[C@@H](NC(=O)[C@@H]1CCCN1C(=O)[C@H](CCC(=O)O)NC(=O)[C@H](CC(C)C)NC(=O)[C@@H]1CCCN1)C(C)C)[C@@H](C)O)C(=O)N[C@@H](CC(N)=O)C(=O)N[C@@H](CCCCNC(=O)c1ccc2c(c1)C1(OC2=O)c2ccc(N(C)C)cc2Oc2cc(N(C)C)ccc21)C(=O)N[C@@H](CC(C)C)C(=O)N[C@H](C(=O)N[C@@H](CCCNC(=N)N)C(=O)N1CCC[C@H]1C(=O)N[C@@H](CCCNC(=N)N)C(=O)N[C@@H](Cc1ccc(O)cc1)C(N)=O)[C@@H](C)O` [compound 20, [K^30(TAMRA)]hPP2–36] (H-PLEPVYPGDNATPEQMAQYAADLRRYINK(X1)LTRPRY-NH2) gave a half-life at 10 μM [1] of roughly 100 h and a half-life at 10 μM [2] of 19.7 ± 0.4 h.

In the case of `CCCCCCCCCCCCCCCC(=O)N[C@@H](CCC(=O)NCCCC[C@H](NC(=O)[C@H](CC(N)=O)NC(=O)[C@@H](NC(=O)[C@H](Cc1ccc(O)cc1)NC(=O)[C@H](CCCNC(=N)N)NC(=O)[C@H](CCCNC(=N)N)NC(=O)[C@H](CC(C)C)NC(=O)[C@H](CC(=O)O)NC(=O)[C@H](C)NC(=O)[C@H](C)NC(=O)[C@H](Cc1ccc(O)cc1)NC(=O)[C@H](CCC(N)=O)NC(=O)[C@H](C)NC(=O)[C@H](CCSC)NC(=O)[C@H](CCC(N)=O)NC(=O)[C@H](CCC(=O)O)NC(=O)[C@@H]1CCCN1C(=O)[C@@H](NC(=O)[C@H](C)NC(=O)[C@H](CC(N)=O)NC(=O)[C@H](CC(=O)O)NC(=O)CNC(=O)[C@@H]1CCCN1C(=O)[C@H](Cc1ccc(O)cc1)NC(=O)[C@@H](NC(=O)[C@@H]1CCCN1C(=O)[C@H](CCC(=O)O)NC(=O)[C@H](CC(C)C)NC(=O)[C@@H]1CCCN1C(=O)c1ccc2c(c1)C1(OC2=O)c2ccc(N(C)C)cc2Oc2cc(N(C)C)ccc21)C(C)C)[C@@H](C)O)[C@@H](C)CC)C(=O)N[C@@H](CC(C)C)C(=O)N[C@H](C(=O)N[C@@H](CCCNC(=N)N)C(=O)N1CCC[C@H]1C(=O)N[C@@H](CCCNC(=N)N)C(=O)N[C@@H](Cc1ccc(O)cc1)C(N)=O)[C@@H](C)O)C(=O)O` [18b, TAMRA-[K^30(E-Pam)]hPP2–36] (X1-PLEPVYPGDNATPEQMAQYAADLRRYINK([γGlu-Palmitoyl])LTRPRY-NH2), the “fold increased half-life in human blood plasma compared to control peptide 14b” value ([1]; 37°C) is reported as “more than 10 fold”, the half-life at 10 μM [1] is reported as 1090 ± 282 h and the half-life at 10 μM [2] is reported as 11.8 ± 0.8 h.

`CCCCCCCC(=O)N[C@@H](CCC(=O)NCCCC[C@H](NC(=O)[C@H](CC(N)=O)NC(=O)[C@@H](NC(=O)[C@H](Cc1ccc(O)cc1)NC(=O)[C@H](CCCNC(=N)N)NC(=O)[C@H](CCCNC(=N)N)NC(=O)[C@H](CC(C)C)NC(=O)[C@H](CC(=O)O)NC(=O)[C@H](C)NC(=O)[C@H](C)NC(=O)[C@H](Cc1ccc(O)cc1)NC(=O)[C@H](CCC(N)=O)NC(=O)[C@H](C)NC(=O)[C@H](CCSC)NC(=O)[C@H](CCC(N)=O)NC(=O)[C@H](CCC(=O)O)NC(=O)[C@@H]1CCCN1C(=O)[C@@H](NC(=O)[C@H](C)NC(=O)[C@H](CC(N)=O)NC(=O)[C@H](CC(=O)O)NC(=O)CNC(=O)[C@@H]1CCCN1C(=O)[C@H](Cc1ccc(O)cc1)NC(=O)[C@@H](NC(=O)[C@@H]1CCCN1C(=O)[C@H](CCC(=O)O)NC(=O)[C@H](CC(C)C)NC(=O)[C@@H]1CCCN1C(=O)c1ccc2c(c1)C1(OC2=O)c2ccc(N(C)C)cc2Oc2cc(N(C)C)ccc21)C(C)C)[C@@H](C)O)[C@@H](C)CC)C(=O)N[C@@H](CC(C)C)C(=O)N[C@H](C(=O)N[C@@H](CCCNC(=N)N)C(=O)N1CCC[C@H]1C(=O)N[C@@H](CCCNC(=N)N)C(=O)N[C@@H](Cc1ccc(O)cc1)C(N)=O)[C@@H](C)O)C(=O)O` [16b, TAMRA-[K^30(E-Capr)]hPP2–36] (X1-PLEPVYPGDNATPEQMAQYAADLRRYINK([γGlu-Octanoyl])LTRPRY-NH2) showed a half-life at 10 μM [1] of 281 ± 26.7 h and a half-life at 10 μM [2] of 14.6 ± 2.8 h.

In the case of `CC[C@H](C)[C@H](NC(=O)[C@H](Cc1ccc(O)cc1)NC(=O)[C@H](CCCNC(=N)N)NC(=O)[C@H](CCCNC(=N)N)NC(=O)[C@H](CC(C)C)NC(=O)[C@H](CC(=O)O)NC(=O)[C@H](C)NC(=O)[C@H](C)NC(=O)[C@H](Cc1ccc(O)cc1)NC(=O)[C@H](CCC(N)=O)NC(=O)[C@H](C)NC(=O)[C@H](CCSC)NC(=O)[C@H](CCC(N)=O)NC(=O)[C@H](CCC(=O)O)NC(=O)[C@@H]1CCCN1C(=O)[C@@H](NC(=O)[C@H](C)NC(=O)[C@H](CC(N)=O)NC(=O)[C@H](CC(=O)O)NC(=O)CNC(=O)[C@@H]1CCCN1C(=O)[C@H](Cc1ccc(O)cc1)NC(=O)[C@@H](NC(=O)[C@@H]1CCCN1C(=O)[C@H](CCC(=O)O)NC(=O)[C@H](CC(C)C)NC(=O)[C@@H]1CCCN1C(=O)c1ccc2c(c1)C1(OC2=O)c2ccc(N(C)C)cc2Oc2cc(N(C)C)ccc21)C(C)C)[C@@H](C)O)C(=O)N[C@@H](CC(N)=O)C(=O)N[C@@H](CCCCN)C(=O)N[C@@H](CC(C)C)C(=O)N[C@H](C(=O)N[C@@H](CCCNC(=N)N)C(=O)N1CCC[C@H]1C(=O)N[C@@H](CCCNC(=N)N)C(=O)N[C@@H](Cc1ccc(O)cc1)C(N)=O)[C@@H](C)O` [14b, TAMRA-[K^30]hPP2–36] (X1-PLEPVYPGDNATPEQMAQYAADLRRYINKLTRPRY-NH2), the half-life at 10 μM [1] is reported as roughly 100 h and the half-life at 10 μM [2] is reported as 11 ± 0.4 h.

Work on `CCCCCCCC(=O)N[C@@H](CCC(=O)NCCCC[C@H](NC(=O)[C@H](CC(N)=O)NC(=O)[C@@H](NC(=O)[C@H](Cc1ccc(O)cc1)NC(=O)[C@H](CCCNC(=N)N)NC(=O)[C@H](CCCNC(=N)N)NC(=O)[C@H](CC(C)C)NC(=O)[C@H](CC(=O)O)NC(=O)[C@H](C)NC(=O)[C@H](C)NC(=O)[C@H](Cc1ccc(O)cc1)NC(=O)[C@H](CCC(N)=O)NC(=O)[C@H](C)NC(=O)[C@H](CCSC)NC(=O)[C@H](CCC(N)=O)NC(=O)[C@H](CCC(=O)O)NC(=O)[C@@H]1CCCN1C(=O)[C@@H](NC(=O)[C@H](C)NC(=O)[C@H](CC(N)=O)NC(=O)[C@H](CC(=O)O)NC(=O)CNC(=O)[C@@H]1CCCN1C(=O)[C@H](Cc1ccc(O)cc1)NC(=O)[C@@H](NC(=O)[C@@H]1CCCN1C(=O)[C@H](CCC(=O)O)NC(=O)[C@H](CC(C)C)NC(=O)[C@@H]1CCCN1)C(C)C)[C@@H](C)O)[C@@H](C)CC)C(=O)N[C@@H](CC(C)C)C(=O)N[C@H](C(=O)N[C@@H](CCCNC(=N)N)C(=O)N1CCC[C@H]1C(=O)N[C@@H](CCCNC(=N)N)C(=O)N[C@@H](Cc1ccc(O)cc1)C(N)=O)[C@@H](C)O)C(=O)O` [16a, [K^30(E-Capr)]hPP2–36] (H-PLEPVYPGDNATPEQMAQYAADLRRYINK([γGlu-Octanoyl])LTRPRY-NH2) yielded an EC50 (hY5R) of 386 nM, an Emax (hY5R; read-out: hY5R Emax) of 75 ± 5% and an EC50 (hY4R) of 1.2 nM. For the same compound, the Emax (hY4R; read-out: hY4R Emax) was 82 ± 4%, the EC50 (hY1R) was greater than 1000 nM and the Emax (hY1R; read-out: hY1R Emax) was 84 ± 6%. It also gave an EC50 (hY2R) greater than 1000 nM and an Emax (hY2R; read-out: hY2R Emax) of 85 ± 5%.
